In brackets after ≈: the same amount, converted by molar mass.
Columns and labels:
[1] = Comparative test of solubility; format: physicochemical; conditions: shaken 75 min; for solubility thermodynamic at 75 min: 200 mM potassium phosphate buffer, pH 7.4, aqueous buffer, read-out: Solibility to 200 mM potassium phosphate buffer; for solubility thermodynamic at 75 min / solubility at 75 min: thermodynamic from solid; for solubility at 75 min: JP-1 artificial gastric fluid, pH 1.2, simulated gastric fluid, JP-1 pH1.2 (artificial gastric fluid), 1 mg in 1 ml
Procedure: Experiment 3 (Comparative Test of Solubility)
1 mg of compounds were placed in 1 ml of medium (JP-1, […] potassium phosphate buffer) and was shaken on a shaking-incubator for 75 min. (1000 rpm). After centrifugation, concentration of supernatant was analyzed by HPLC.
JP1: pH1.2 (artificial gastric fluid: 35 mM NaCl, 84 mM HCl in water)
2.0 g of NaCl, 7.0 ml of HCl and water were mixed in a measuring flask (1000 ml).
200 mM potassium phosphate buffer: pH7.4
200 mM K2HPO4 and 200 mM KH2PO4 were mixed and adjusted to pH7.4 by using pH meter.

[2] = Comparative test of solubility; format: physicochemical; conditions: water, thermodynamic from solid
Male beagle dogs = assay: Pharmacological test in dog: plasma glucose after oral administration; format: in vivo; conditions: AUC for 4 hr after administration, fasted male beagle dogs
Procedure: Pharmacological Experiment 2 (Pharmacological Test in Dog)
Male beagle dogs (BW 9.6-13.8 kg) were fasted overnight. Pre-dose blood sampling was performed from cephalic vein. The test drugs, which were suspended into 0.5% methylcellulose, were orally administrated (example 1 at 0.25, 0.5 and 1 mg/kg, and example 4, and compound B at 1 mg/kg). Control group was given 0.5% methylcellulose alone. Blood was taken every 0.5 or 1 hour after the drug dosing. Plasma sample were obtained by centrifugation, and the plasma glucose levels were measured by “Determiner GL-E” (Kyowa Medex Co., Ltd. Japan).

[3] = target: T1, recombinant human liver GK (Homo sapiens, UniProt P35557); assay: Glucokinase-activating effect (Thio-NADH coupled assay with G6PDH); format: biochemical; conditions: 2.5 mM glucose, 30° C.
T1 construct: made in house; host or cells: E. coli
T1 sequence (P35557 1-466 isoform P35557-2): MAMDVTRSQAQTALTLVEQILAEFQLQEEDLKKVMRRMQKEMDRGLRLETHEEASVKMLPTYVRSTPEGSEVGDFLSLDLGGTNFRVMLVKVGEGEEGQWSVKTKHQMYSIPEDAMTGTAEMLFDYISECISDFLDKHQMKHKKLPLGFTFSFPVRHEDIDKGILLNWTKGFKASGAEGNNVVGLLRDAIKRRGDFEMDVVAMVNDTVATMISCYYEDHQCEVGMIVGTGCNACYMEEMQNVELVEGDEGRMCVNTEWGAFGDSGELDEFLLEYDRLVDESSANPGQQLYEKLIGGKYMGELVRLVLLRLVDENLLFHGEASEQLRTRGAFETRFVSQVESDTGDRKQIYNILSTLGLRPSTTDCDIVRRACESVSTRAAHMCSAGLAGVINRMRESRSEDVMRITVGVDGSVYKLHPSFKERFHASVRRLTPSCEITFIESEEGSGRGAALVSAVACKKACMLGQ
Description: Pharmacological Experiment 1 (Glucokinase-Activating Effect)
The excellent glucokinase-activating effect of the compounds of formula (I) may be determined by a method described in references (for example, Diabetes, Vol. 45, pp. 1671-1677, 1996), or in accordance with it.
The glucokinase activity may be determined not by directly measuring glucose-6-phosphate but by measuring the level of Thio-NADH, which is produced when a reporter enzyme, glucose-6-phosphate dehydrogenase produces phosphogluconolactone from glucose-6-phosphate, and based on the level, the degree of glucokinase activation by the compound tested may be determined.
In this assay, used was a recombinant human liver GK, which was expressed by E. coli as a FLAG fusion protein therein and was purified by ANTIFLAG M2 AFFINITY GEL (Sigma).
Using a flat-bottomed 96-well plate, the assay was carried out at 30° C. 69 μl of an assay buffer (25 mM Hepes Buffer/pH=7.2, 2 mM MgCl2, 1 mM ATP, 0.5 mM TNAD, 1 mM dithiothreitol) was put into the plate, and 1 μl of a DMSO solution of the compound or DMSO alone as a control was added thereto. Next, 20 μl of an enzyme mixture (FLAG-GK, 20 U/ml G6PDH) cooled in ice was added to it, and 10 μl of a substrate, 25 mM glucose was added to it, and the reaction was initiated (final glucose concentration=2.5 mM).
After the start of the reaction, the increase in the absorbance at 405 nm was measured for 12 minutes at intervals of 30 seconds, and the increase for the first 5 minutes was used for assessing the compound tested. FLAG-GK was added so that the absorbance increase after 5 minutes in the presence of 1% DMSO could be from 0.04 to 0.06.
The OD level of the DMSO control was set as 100%; and the OD level of the test compound at different concentrations was determined. From the OD level at each concentration, Emax (%) and EC50 (μM) were computed and used as the index of the GK-activating potency of the compound.

| Structure (SMILES) | solubility thermodynamic at 75 min ([1]; pH7.4, 1 mg in 1 ml) [µg/mL] | solubility at 75 min [1] [µg/mL] | solubility at 75 min [2] [µg/mL] | % Reduction of plasma glucose AUC (Male beagle dogs; 1 mg/kg oral) [%] | EC50 [3] [nM] | % Reduction of plasma glucose AUC (Male beagle dogs; 0.25 mg/kg oral) [%] | % Reduction of plasma glucose AUC (Male beagle dogs; 0.5 mg/kg oral) [%] | Solibility to 200 mM potassium phosphate buffer ([1]; pH7.4, 1 mg in 1 ml) [µg/mL] | Emax ([3]; OD level of DMSO control set as 100%) [%] |
| --- | --- | --- | --- | --- | --- | --- | --- | --- | --- |
| Cc1nsc(NC(=O)c2nc(Sc3nncn3C)ccc2Sc2ccc(CCO)cc2)n1 [(A), reference compound] | 3.4 (≈ 7 µM) | 6.2 (≈ 12.8 µM) | 2.4 (≈ 4.94 µM) | – | – | – | – | – | – |
| Cc1nsc(NC(=O)c2nc(Sc3nnc[nH]3)ccc2Sc2ccc(OCCN(C)C)cc2)n1 [Compound (B), reference compound] | – | – | – | 7.4 | – | – | – | – | – |
| CCN(C)CCOc1ccc(Sc2ccc(Sc3nncn3C)nc2C(=O)Nc2nc(C)ns2)cc1 [Example 23, 3-[(4-{2-[ethyl(methyl)amino]ethoxy}phenyl)thio]-N-(3-methyl-1,2,4-thiadiazol-5-yl)-6-[(4-methyl-4H-1,2,4-triazol-3-yl)thio]pyridine-2-carboxamide] | 122 (≈ 226 µM) | > 1000 | 208 (≈ 383 µM) | – | 60 | – | – | – | – |
| CCN(CC)CCOc1ccc(Sc2ccc(Sc3nncn3C)nc2C(=O)Nc2nc(C)ns2)cc1 [Example 24, 3-({4-[2-(diethylamino)ethoxy]phenyl}thio)-N-(3-methyl-1,2,4-thiadiazol-5-yl)-6-[(4-methyl-4H-1,2,4-triazol-3-yl)thio]pyridine-2-carboxamide] | 298 (≈ 536 µM) | > 1000 | 230 (≈ 414 µM) | – | 40 | – | – | – | – |
| CCN1CC(Oc2ccc(Sc3ccc(Sc4nncn4C)nc3C(=O)Nc3nc(C)ns3)cc2)C1 [Example 25, 3-({4-[(1-ethylazetidin-3-yl)oxy]phenyl}thio)-N-(3-methyl-1,2,4-thiadiazol-5-yl)-6-[(4-methyl-4H-1,2,4-triazol-3-yl)thio]pyridine-2-carboxamide] | 13.8 (≈ 25.5 µM) | > 1000 | 16.4 (≈ 30.3 µM) | 42.1 | 50 | – | – | – | – |
| Cc1nsc(NC(=O)c2nc(Sc3nncn3C)ccc2Sc2ccc(OCCN3CCCCC3)cc2)n1 [Example 26, N-(3-methyl-1,2,4-thiadiazol-5-yl)-6-[(4-methyl-4H-1,2,4-triazol-3-yl)thio]-3-{[4-(2-piperidin-1-ylethoxy)phenyl]thio}pyridine-2-carboxamide] | 239 (≈ 421 µM) | > 1000 | 176 (≈ 309 µM) | – | 70 | – | – | – | – |
| Cc1nsc(NC(=O)c2nc(Sc3nncn3C)ccc2Sc2ccc(OC[C@@H]3CCCN3C)cc2)n1 [Example 7, 3-[(4-{[(2S)-1-methylpyrrolidin-2-yl]methoxy}phenyl)thio]-N-(3-methyl-1,2,4-thiadiazol-5-yl)-6-[(4-methyl-4H-1,2,4-triazol-3-yl)thio]pyridine-2-carboxamide] | 308 (≈ 555 µM) | > 1000 | 583 (≈ 1050 µM) | – | 60 | – | – | – | – |
| Cc1nsc(NC(=O)c2nc(Sc3nncn3C)ccc2Sc2ccc(OCCN(C)C)cc2)n1 [Example 1, 3-({4-[2-(dimethylamino)ethoxy]phenyl}thio)-N-(3-methyl-1,2,4-thiadiazol-5-yl)-6-[(4-methyl-4H-1,2,4-triazol-3-yl)thio]pyridine-2-carboxamide] | 17.5 (≈ 33.1 µM) | > 1000 | 15.2 (≈ 28.8 µM) | 15.7 | 90 | 7.9 | 10.6 | – | – |
| Cc1nsc(NC(=O)c2nc(Sc3nncn3C)ccc2Sc2ccc(OCCN3CCC[C@H]3C)cc2)n1 [Example 4] | – | > 1000 | 47.4 (≈ 83.3 µM) | 26.8 | 150 | – | – | 47.3 | – |
| Cc1nsc(NC(=O)c2nc(Sc3nncn3C)ccc2Sc2ccc(O[C@@H]3CCN(C(C)C)C3)cc2)n1 [Example 20, 3-[(4-{[(3R)-1-isopropylpyrrolidin-3-yl]oxy}phenyl)thio]-N-(3-methyl-1,2,4-thiadiazol-5-yl)-6-[(4-methyl-4H-1,2,4-triazol-3-yl)thio]pyridine-2-carboxamide] | 86.8 (≈ 153 µM) | > 1000 | 127 (≈ 223 µM) | – | 40 | – | – | – | 964 |

Reference: patent US8338460B2, “2-pyridinecarboxamide derivative having GK-activating effect” (MSD K. K., priority 2006, dated 2012)
